From US12018023B2 (NERVIANO MEDICAL SCIENCES S.R.L., priority 2018, dated 2024)

What was measured:
[1] = molecular target: T1, IDH1^R132H homodimer enzyme (Homo sapiens, UniProt O75874, R132H); experiment: NADPH depletion assay, IDH1 R132H; assay type: biochemical
T1 construct: purchased not specified
In short: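 IDH1 R132H enzyme (8 nM as diluted) in Tris-HCl pH 7.6 with 10 mM MgCl2, 0.001% Triton X-100 and 4 mM β-mercaptoethanol is preincubated 15 min at RT with compound. Substrate mix (12 uM NADPH, 3.4 mM α-ketoglutarate) is added for 60 min; remaining NAD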

IDH1^R132C = molecular target: T2, IDH1^R132C (Homo sapiens, UniProt O75874, R132C); experiment: NADPH depletion assay, IDH1 R132C; assay type: biochemical
T2 construct: purchased not specified
T2 sequence (O75874 whole entry R132C): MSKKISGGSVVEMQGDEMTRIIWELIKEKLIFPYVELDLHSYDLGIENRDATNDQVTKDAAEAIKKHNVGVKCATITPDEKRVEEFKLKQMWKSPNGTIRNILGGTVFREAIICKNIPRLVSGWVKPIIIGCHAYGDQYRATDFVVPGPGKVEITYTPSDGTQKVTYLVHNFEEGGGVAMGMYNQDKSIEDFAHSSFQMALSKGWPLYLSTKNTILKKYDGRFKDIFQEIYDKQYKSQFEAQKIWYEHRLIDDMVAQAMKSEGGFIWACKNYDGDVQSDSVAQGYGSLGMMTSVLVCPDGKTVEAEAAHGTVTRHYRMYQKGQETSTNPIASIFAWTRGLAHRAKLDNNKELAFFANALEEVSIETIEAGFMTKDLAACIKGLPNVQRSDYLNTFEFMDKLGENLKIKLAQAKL
In short: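 IDH1 R132C (2 nM) preincubated 15 min at RT with compound in Tris-HCl pH 7.6/MgCl2 buffer, then 60 min RT with NADPH and 0.14 mM alpha-ketoglutarate. Remaining NADPH read by diaphorase/resazurin fluorescence (Ex544/Em590).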

IDH2^R172K = molecular target: T3, IDH2^R172K (Homo sapiens, UniProt P48735, R172K); experiment: NADPH depletion assay, IDH2 R172K; assay type: biochemical
T3 construct: purchased not specified
T3 sequence (P48735 40-452 R172K): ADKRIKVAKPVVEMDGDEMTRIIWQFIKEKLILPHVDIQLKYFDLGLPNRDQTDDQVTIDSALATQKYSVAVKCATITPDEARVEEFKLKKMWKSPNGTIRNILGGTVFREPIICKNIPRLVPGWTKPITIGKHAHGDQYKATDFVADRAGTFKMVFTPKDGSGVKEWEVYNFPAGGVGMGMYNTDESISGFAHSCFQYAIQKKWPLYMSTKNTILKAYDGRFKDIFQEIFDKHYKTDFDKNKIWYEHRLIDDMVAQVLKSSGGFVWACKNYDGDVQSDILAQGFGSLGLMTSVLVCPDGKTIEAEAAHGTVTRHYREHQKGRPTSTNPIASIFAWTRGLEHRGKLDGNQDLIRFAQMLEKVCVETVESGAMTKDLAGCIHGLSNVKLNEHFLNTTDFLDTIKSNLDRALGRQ
In short: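 IDH2 R172K (16 nM) was preincubated 15 min at RT with compound (1:3 series from 1 mM in DMSO) in Tris pH 7.6/NaCl/MgCl2/Triton/β-mercaptoethanol. The reaction ran 60 min at RT with 0.55 mM alpha-ketoglutarate and NADPH (12 μM in the substrate mix). Remaining NADPH was read with diaphorase/resazurin fluorescence at Ex544/Em590.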

U87MG_IDH1R132H = experiment: Cellular 2-HG production assay, U87-MG-IDH1 R132H; assay type: cell-based; details: inhibition of 2HG production, 72 hr incubation, LC-MS/MS
Experimental: (§1) Cell lines HT-1080 (commercially available) and U87-MG-IDH1^R132H (obtained in analoy to the procedure reported in J. Mol. Neurosci 2013, 50, 165-71) are maintained in E-MEM 10% FCS and incubated at 37° C. in a humidified 5% CO2 atmosphere. Stably transfected U87-MG cell lines are also supplemented with 500 μg/mL G418.
(§2) Cells are seeded into 96 well black flat bottom plates at a density of 500 cells/well in 100 μL complete medium. After 24 hr the medium is replaced with 200 uL of fresh medium and compounds (dissolved into DMSO) are administrated to the cells using D300E Digital Dispenser (Tecan).
(§3) After 72 hr of incubation 100 uL from each well are collected and used for 2HG (R(−)-2-hydroxyglutarate) quantification.
(§4) Levels of 2-HG in cell culture media are determined by LC-MS/MS. Cell supernatants (100 μL/well) are treated with 1 M aqueous trichloroacetic acid containing 130 μM of the internal standard 2-HG-d3 (20 μL/well) in a 96-well plate.
(§5) The plates are sealed, mildly vortexed for 60 minutes, centrifuged at 4,000 RPM for 15 minutes, placed in a refrigerated autosampler taking care not to shake them, and aliquots of the upper part of the samples are directly injected in the chromatographic system. Calibration standards are obtained by ten fold dilution of aqueous 2-HG stock solutions with blank cell culture medium and denatured exactly in the same way as described above for samples. Samples and standards are assayed for 2-HG by reversed phase chromatography on a C18 column eluted with aqueous 0.15% formic acid and briefly washed with 90% methanol at the end of the run. 2-HG is determined by negative ion electrospray ionization with the internal standard method on a triple quadrupole mass spectrometer monitoring the MRM transitions 147>129 (2-HG) and 150>132 (2-HG-d3). 2-HG inhibition was calculated by comparing treated versus control data using Assay Explore (Symyx) software, with IC50 determined using a sigmoidal fitting algorithm.

HT-1080 (IDH1^R132C) = experiment: Cellular 2-HG production assay, HT-1080; assay type: cell-based; details: Homo sapiens, HT-1080, 72 h, inhibition of 2HG production, 72 hr incubation, LC-MS/MS; read-out: HT1080 2-HG IC50
Experimental: as §1, §2, §3, §4, §5

IDH1WT enzyme = molecular target: T4, IDH1WT enzyme (Homo sapiens, UniProt O75874); experiment: Enzymatic assay for IDH1 wild-type (NADPH forming assay); assay type: biochemical
T4 construct: purchased not specified
T4 sequence (O75874 whole entry): as the sequence (O75874 whole entry R132C) above, with C132R counted along it
Experimental: IDH1WT enzymatic activity converting isocitric acid to alpha-ketoglutarate is measured using a NADPH forming assay. In the assay the forming cofactor is measured in continuous with the addition of a catalytic excess of diaphorase and resazurin, to generate a fluorescent signal in proportion to the amount of NADPH forming.
Compounds were preincubated with the enzyme, then the reaction was started by the addition of NADP^+, isocitrate, diaphorase and a corresponding substrate, resazurin. Diaphorase reduces resazurin to the highly fluorescent resorufin with the concomitant oxidation of NADPH to NADP. Specifically, 0.2 uL of test compound, previously serially diluted 1 to 3, 10 experimental points from 1 mM in DMSO, was added to 0.016 nM IDH1WT enzyme in 10 μL of Assay Buffer (150 mM NaCl, 50 mM Tris-HCl pH 7.6, 10 mM MgCl2, 0.001% Triton X-100, 4 mM β-mercaptoethanol); the mixture is incubated for 15 minutes at room temperature. The reaction is started with the addition of 10 μL of Substrate Mix (400 μM NADP^+, 40 μM iso-citrate, 5 ugr/mL Diaphorase and 7 μM resazurin in Assay Buffer), the mixture is incubated at room temperature and the reaction is reading on a ViewLux as platereader at Ex544/Em590 in continuous.

T1 sequence (O75874 whole entry R132H): as the sequence (O75874 whole entry R132C) above, with C132H counted along it

An IC50 [1] of 118 nM, an IC50 (IDH1^R132C) of 67 nM and an IC50 (IDH2^R172K) of 4.36 µM were found for `C[C@H](Nc1ncc2ccc(=O)n(CC(C)(C)C)c2n1)c1ccc(Oc2ccccc2)cc1` [cpd 49, 8-(2,2-dimethylpropyl)-2-{[(1S)-1-(4-phenoxyphenyl)ethyl]amino}pyrido[2,3-d]pyrimidin-7(8H)-one] in this work. The IC50 (U87MG_IDH1R132H) was 507 nM and the IC50 (HT-1080 (IDH1^R132C)) was 307 nM.
An IC50 [1] of 82 nM, an IC50 (IDH1^R132C) of 44 nM and an IC50 (IDH2^R172K) of 5.7 µM were found for `CC[C@H](C)n1c(=O)ccc2cnc(N[C@@H](C)c3ccc(CN4CCCC(F)(F)C4)cc3)nc21` [cpd 62, 8-[(2S)-butan-2-yl]-2-{[(1S)-1-{4-[(3,3-difluoropiperidin-1-yl)methyl]phenyl}ethyl]amino}pyrido[2,3-d]pyrimidin-7(8H)-one] in this work. It also gave an IC50 (U87MG_IDH1R132H) of 462 nM and an IC50 (HT-1080 (IDH1^R132C)) of 169 nM.
An IC50 [1] of 20 nM, an IC50 (IDH1^R132C) of 11 nM and an IC50 (U87MG_IDH1R132H) of 179 nM were found for `CC(C)[C@H](C)n1c(=O)ccc2cnc(N[C@@H](C)c3ccc(CN4CCCC(F)(F)C4)cc3)nc21` [cpd 65, 2-{[(1S)-1-{4-[(3,3-difluoropiperidin-1-yl)methyl]phenyl}ethyl]amino}-8-[(2S)-3-methylbutan-2-yl]pyrido[2,3-d]pyrimidin-7(8H)-one] in this work. It also gave an IC50 (HT-1080 (IDH1^R132C)) of 82 nM.
An IC50 [1] of 161 nM, an IC50 (IDH1^R132C) of 94 nM and an IC50 (IDH2^R172K) of 4.54 µM were found for `C[C@H](Nc1ncc2ccc(=O)n([C@@H](C)C3CCCCC3)c2n1)c1ccc(CN2CCCC(F)(F)C2)cc1` [cpd 66, 8-[(1S)-1-cyclohexylethyl]-2-{[(1S)-1-{4-[(3,3-difluoropiperidin-1-yl)methyl]phenyl}ethyl]amino} pyrido[2,3-d]pyrimidin-7(8H)-one] in this work. The IC50 (U87MG_IDH1R132H) was 691 nM and the IC50 (HT-1080 (IDH1^R132C)) was 353 nM.
An IC50 [1] of 78 nM, an IC50 (IDH1^R132C) of 29 nM and an IC50 (U87MG_IDH1R132H) of 646 nM were found for `CC(C)[C@H](C)n1c(=O)ccc2cnc(N[C@@H](C)c3ccc(CN4CCOCC4)c(F)c3)nc21` [cpd 68, 2-({(1S)-1-[3-fluoro-4-(morpholin-4-ylmethyl)phenyl]ethyl}amino)-8-[(2S)-3-methylbutan-2-yl]pyrido[2,3-d]pyrimidin-7(8H)-one] in this work. It also gave an IC50 (HT-1080 (IDH1^R132C)) of 315 nM.
An IC50 [1] of 112 nM, an IC50 (IDH1^R132C) of 75 nM and an IC50 (U87MG_IDH1R132H) of 501 nM were found for `C[C@H](Nc1ncc2ccc(=O)n(CC(C)(C)C)c2n1)c1ccc(C(=O)NC2CCC(F)(F)CC2)c(F)c1` [cpd 89, N-(4,4-difluorocyclohexyl)-4-[(1S)-1-{[8-(2,2-dimethylpropyl)-7-oxo-7,8-dihydropyrido[2,3-d]pyrimidin-2-yl]amino}ethyl]-2-fluorobenzamide] in this work. For the same compound, the IC50 (HT-1080 (IDH1^R132C)) was 505 nM.
An IC50 [1] of 238 nM, an IC50 (IDH1^R132C) of 104 nM and an IC50 (U87MG_IDH1R132H) of 2610 nM were found for `C[C@H](Nc1ncc2ccc(=O)n(CC(C)(C)C)c2n1)c1ccc(CN2CCOCC2)cc1` [cpd 110, 8-(2,2-dimethylpropyl)-2-({(1S)-1-[4-(morpholin-4-ylmethyl)phenyl]ethyl}amino)pyrido[2,3-d]pyrimidin-7(8H)-one] in this work. The IC50 (HT-1080 (IDH1^R132C)) was 590 nM.
An IC50 [1] of 176 nM, an IC50 (IDH1^R132C) of 101 nM and an IC50 (IDH2^R172K) of 5.02 µM were found for `C[C@H](Nc1ncc2ccc(=O)n(CC(C)(C)C(F)(F)F)c2n1)c1ccc(CN2CCC(F)(F)CC2)cc1` [cpd 116, 2-{[(1S)-1-{4-[(4,4-difluoropiperidin-1-yl)methyl]phenyl}ethyl]amino}-8-(3,3,3-trifluoro-2,2-dimethylpropyl) pyrido[2,3-d]pyrimidin-7(8H)-one] in this work. For the same compound, the IC50 (U87MG_IDH1R132H) was 612 nM and the IC50 (HT-1080 (IDH1^R132C)) was 311 nM.
An IC50 [1] of 197 nM, an IC50 (IDH1^R132C) of 98 nM and an IC50 (IDH2^R172K) of 6.68 µM were found for `C[C@H](Nc1ncc2ccc(=O)n(CC(C)(C)C#N)c2n1)c1ccc2ccccc2c1` [cpd 129, 2,2-dimethyl-3-[2-{[(1S)-1-(naphthalen-2-yl)ethyl]amino}-7-oxopyrido[2,3-d]pyrimidin-8(7H)-yl]propanenitrile] in this work. For the same compound, the IC50 (U87MG_IDH1R132H) was 3840 nM.
An IC50 [1] of 180 nM, an IC50 (IDH1^R132C) of 93 nM and an IC50 (IDH2^R172K) of 5.03 µM were found for `C[C@H](Nc1ncc2ccc(=O)n(CC(C)(C)C)c2n1)c1ccc(-c2cnn(C)c2)cc1` [cpd 130, 8-(2,2-dimethylpropyl)-2-({(1S)-1-[4-(1-methyl-1H-pyrazol-4-yl)phenyl]ethyl}amino)pyrido[2,3-d]pyrimidin-7 (8H)-one] in this work. For the same compound, the IC50 (U87MG_IDH1R132H) was 4840 nM.
An IC50 [1] of 194 nM, an IC50 (IDH1^R132C) of 124 nM and an IC50 (IDH2^R172K) of 6.11 µM were found for `C[C@H](Nc1ncc2ccc(=O)n(CC(C)(C)C)c2n1)c1ccc(-c2ccnc(F)c2)cc1` [cpd 132, 8-(2,2-dimethylpropyl)-2-({(1S)-1-[4-(2-fluoropyridin-4-yl)phenyl]ethyl}amino)pyrido[2,3-d]pyrimidin-7(8H)-one] in this work. It also gave an IC50 (U87MG_IDH1R132H) of 3220 nM.
An IC50 [1] of 152 nM, an IC50 (IDH1^R132C) of 61 nM and an IC50 (IDH2^R172K) of 6.11 µM were found for `C[C@H](Nc1ncc2ccc(=O)n(CC(C)(C)C)c2n1)c1ccc(-c2ccccc2C#N)cc1` [cpd 134, 4′-[(1S)-1-{[8-(2,2-dimethylpropyl)-7-oxo-7,8-dihydropyrido[2,3-d]pyrimidin-2-yl]amino}ethyl]biphenyl-2-carbonitrile] in this work. For the same compound, the IC50 (U87MG_IDH1R132H) was 874 nM.
An IC50 [1] of 78 nM, an IC50 (IDH1^R132C) of 25 nM and an IC50 (IDH1WT enzyme) of 6.8 µM were found for `C=C(C)C(=O)N1CCN(Cc2ccc([C@H](C)Nc3ncc4ccc(=O)n(CC(C)(C)C)c4n3)cc2)CC1` [cpd 144, 8-(2,2-dimethylpropyl)-2-{[(1S)-1-(4-{[4-(2-methylacryloyl)piperazin-1-yl]methyl}phenyl)ethyl]amino} pyrido [2,3-d]pyrimidin-7(8H)-one] in this work.
An IC50 [1] of 167 nM, an IC50 (IDH1^R132C) of 90 nM and an IC50 (IDH2^R172K) of 3.11 µM were found for `CC(C)n1c(=O)ccc2cnc(N[C@@H](C)c3ccc(CN4CCCC(F)(F)C4)cc3)nc21` [cpd 170, 2-{[(1S)-1-{4-[(3,3-difluoropiperidin-1-yl)methyl]phenyl}ethyl]amino}-8-(propan-2-yl)pyrido[2,3-d]pyrimidin-7(8H)-one] in this work. For the same compound, the IC50 (U87MG_IDH1R132H) was 637 nM and the IC50 (HT-1080 (IDH1^R132C)) was 442 nM.
An IC50 (IDH1WT enzyme) of 4.29 µM was found for `C=CC(=O)N1CCN(Cc2ccc([C@H](C)Nc3ncc4ccc(=O)n(C(C)C)c4n3)cn2)CC1` [cpd 213, 2-{[(1S)-1-{6-[(4-acryloylpiperazin-1-yl)methyl]pyridin-3-yl}ethyl]amino}-8-(propan-2-yl)pyrido[2,3-d]pyrimidin-7(8H)-one] in this work.
